In patent US20180147196A1, “PYRIDIN-3-YL ACETIC ACID DERIVATIVES AS INHIBITORS OF HUMAN IMMUNODEFICIENCY VIRUS REPLICATION” (priority 2015, published 2018):
Like-named read-outs stand apart in the source and are kept apart here.

Tested on: NL-RLuc virus
Assay: Inhibition of HIV replication (NL-RLuc virus in MT-2 cells, luciferase readout)
Format: cell-based
Conditions: Human immunodeficiency virus 1, MT2, 120 h
Text: Inhibition of HIV replication: A recombinant NL-RLuc proviral clone was constructed in which a section of the nef gene from NL4-3 was replaced with the Renilla Luciferase gene. This virus is fully infectious and can undergo multiple cycles of replication in cell culture. In addition, the luciferous reporter provides a simple and easy method for quantitating the extent of virus growth and consequently, the antiviral activity of test compounds. The plasmid pNLRLuc contains the proviral NL-Rluc DNA cloned into pUC18 at the Pvull site. The NL-RLuc virus was prepared by transfection of 293T cells with the plasmid pNLRLuc. Transfections were performed using the LipofectAMINE PLUS kit from Invitrogen (Carlsbad, Calif.) according to the manufacturer and the virus generated was titered in MT-2 cells. For susceptibility analyses, the titrated virus was used to infect MT-2 cells in the presence of compound, and after 5 days of incubation, cells were processed and quantitated for virus growth by the amount of expressed luciferase. Assay media was RPMI 1640 supplemented with 10% heat inactivated fetal bovine serum (FBS), 100 units/ml penicillin G/100 units/ml streptomycin, 10 mM HEPES buffer pH 7.55 and 2 mM L-glutamine. The results from at least 2 experiments were used to calculate the EC50 values. Luciferase was quantitated using the Dual Luciferase kit from Promega (Madison, Wis.). Susceptibility of viruses to compounds was determined by incubation in the presence of serial dilutions of the compound. The 50% effective concentration (EC50) was calculated by using the exponential form of the median effect equation where (Fa)=1/[1+(ED50/drug conc.)^m] (Johnson V A, Byington R T. Infectivity Assay. In Techniques in HIV Research. ed. Aldovini A, Walker BD. 71-76. New York: Stockton Press.1990). Activity equal to A refers to a compound having an EC50<100 nM, while B and C denote compounds having an EC50 between 100 nM and 1 uM (B) or >1 uM (C).

| SMILES | EC50 (read-out: Activity) | EC50 (read-out: EC50 μM) |
| --- | --- | --- |
| COC(=O)NC/C=C/c1c(C)nc(C)c([C@H](OC(C)(C)C)C(=O)O)c1N1CCC(C)(C)CC1 [Example 18, (S,E)-2-(tert-Butoxy)-2-(4-(4,4-dimethylpiperidin-1-yl)-5-(3-((methoxycarbonyl)amino)prop-1-en-1-yl)-2,6-dimethylpyridin-3-yl)acetic acid] | 0.1 to 1 µM | – |
| Cc1nc(C)c([C@H](OC(C)(C)C)C(=O)O)c(N2CCC(C)(C)CC2)c1C1=CC(CCOc2ccc(F)cc2)C1 (stereo partly drawn) [Example 25, (2S)-2-(tert-Butoxy)-2-(4-(4,4-dimethylpiperidin-1-yl)-5-(3-(2-(4-fluorophenoxy)ethyl)cyclobut-1-en-1-yl)-2,6-dimethylpyridin-3-yl)acetic acid] | < 0.1 µM | – |
| Cc1nc(C)c([C@H](OC(C)(C)C)C(=O)O)c(N2CCC(C)(C)CC2)c1C1=CCNCC1 [Example 21, (S)-2-(tert-Butoxy)-2-(4-(4,4-dimethylpiperidin-1-yl)-2,6-dimethyl-1′,2′,3′,6′-tetrahydro-[3,4′-bipyridin]-5-yl)acetic acid] | > 1 µM | 2.21 µM |
| Cc1nc(C)c([C@H](OC(C)(C)C)C(=O)O)c(N2CCC(C)(C)CC2)c1C1CC1 [Example 31, (S)-2-(tert-Butoxy)-2-(5-cyclopropyl-4-(4,4-dimethylpiperidin-1-yl)-2,6-dimethylpyridin-3-yl)acetic acid] | 0.1 to 1 µM | 0.118 µM |
| C=Cc1c(C)nc(C)c([C@H](OC(C)(C)C)C(=O)O)c1N1CCC(C)(C)CC1 [Example 28, (S)-2-(tert-Butoxy)-2-(4-(4,4-dimethylpiperidin-1-yl)-2,6-dimethyl-5-vinylpyridin-3-yl)acetic acid] | 0.1 to 1 µM | – |
| Cc1nc(C)c([C@H](OC(C)(C)C)C(=O)O)c(N2CCC(C)(C)CC2)c1/C=C/Cc1ccccc1 [Example 9, (S,E)-2-(tert-Butoxy)-2-(4-(4,4-dimethylpiperidin-1-yl)-2,6-dimethyl-5-(3-phenylprop-1-en-1-yl)pyridin-3-yl)acetic acid] | 0.1 to 1 µM | 0.281 µM |
| Cc1nc(C)c([C@H](OC(C)(C)C)C(=O)O)c(N2CCC(C)(C)CC2)c1CCc1ccc(F)cc1 [Example 4, (S)-2-(tert-Butoxy)-2-(4-(4,4-dimethylpiperidin-1-yl)-5-(4-fluorophenethyl)-2,6-dimethylpyridin-3-yl)acetic acid] | < 0.1 µM | – |
| C/C=C/c1c(C)nc(C)c([C@H](OC(C)(C)C)C(=O)O)c1N1CCC(C)(C)CC1 [Example 30, (S,E)-2-(tert-Butoxy)-2-(4-(4,4-dimethylpiperidin-1-yl)-2,6-dimethyl-5-(prop-1-en-1-yl)pyridin-3-yl)acetic acid] | 0.1 to 1 µM | – |
| Cc1nc(C)c([C@H](OC(C)(C)C)C(=O)O)c(N2CCC(C)(C)CC2)c1C1=CCN(CCCc2ccc(F)cc2)CC1 [Example 23, (S)-2-(tert-Butoxy)-2-(4-(4,4-dimethylpiperidin-1-yl)-1′-(3-(4-fluorophenyl)propyl)-2,6-dimethyl-1′,2′,3′,6′-tetrahydro-[3,4′-bipyridin]-5-yl)acetic acid] | < 0.1 µM | – |
| Cc1nc(C)c([C@H](OC(C)(C)C)C(=O)O)c(N2CCC(C)(C)CC2)c1C1=CCC(C(C)(C)C)CC1 (stereo partly drawn) [Example 15, (2S)-2-(tert-Butoxy)-2-(5-(4-(tert-butyl)cyclohex-1-en-1-yl)-4-(4,4-dimethylpiperidin-1-yl)-2,6-dimethylpyridin-3-yl)acetic acid] | 0.1 to 1 µM | – |
| Cc1nc(C)c([C@H](OC(C)(C)C)C(=O)O)c(N2CCC(C)(C)CC2)c1Br [Example 13, (S)-2-(5-Bromo-4-(4,4-dimethylpiperidin-1-yl)-2,6-dimethylpyridin-3-yl)-2-(tert-butoxy)acetic acid] | 0.1 to 1 µM | – |
| Cc1nc(C)c([C@H](OC(C)(C)C)C(=O)O)c(N2CCC(C)(C)CC2)c1C [Example 26, (S)-2-(tert-Butoxy)-2-(4-(4,4-dimethylpiperidin-1-yl)-2,5,6-trimethylpyridin-3-yl)acetic acid] | < 0.1 µM | 0.097 µM |
| Cc1nc(C)c([C@H](OC(C)(C)C)C(=O)O)c(N2CCC(C)(C)CC2)c1C1=CCN(C(=O)OCc2ccccc2)CC1 [Example 19, (S)-2-(1′-((Benzyloxy)carbonyl)-4-(4,4-dimethylpiperidin-1-yl)-2,6-dimethyl-1′,2′,3′,6′-tetrahydro-[3,4′-bipyridin]-5-yl)-2-(tert-butoxy)acetic acid] | < 0.1 µM | – |
| CCc1c(C)nc(C)c([C@H](OC(C)(C)C)C(=O)O)c1N1CCC(C)(C)CC1 [Example 29, (S)-2-(tert-Butoxy)-2-(4-(4,4-dimethylpiperidin-1-yl)-5-ethyl-2,6-dimethylpyridin-3-yl)acetic acid] | < 0.1 µM | 0.068 µM |
| COC(=O)N1CC=C(c2c(C)nc(C)c([C@H](OC(C)(C)C)C(=O)O)c2N2CCC(C)(C)CC2)CC1 [Example 20, (S)-2-(tert-Butoxy)-2-(4-(4,4-dimethylpiperidin-1-yl)-1′-(methoxycarbonyl)-2,6-dimethyl-1′,2′,3′,6′-tetrahydro-[3,4′-bipyridin]-5-yl)acetic acid] | 0.1 to 1 µM | – |
| Cc1nc(C)c([C@H](OC(C)(C)C)C(=O)O)c(N2CCC(C)(C)CC2)c1/C=C/c1ccc(F)cc1 [Example 3, (S,E)-2-(tert-Butoxy)-2-(4-(4,4-dimethylpiperidin-1-yl)-5-(4-fluorostyryl)-2,6-dimethylpyridin-3-yl)acetic acid] | < 0.1 µM | – |
| Cc1nc(C)c([C@H](OC(C)(C)C)C(=O)O)c(N2CCC(C)(C)CC2)c1C#N [Example 24, (S)-2-(tert-Butoxy)-2-(5-cyano-4-(4,4-dimethylpiperidin-1-yl)-2,6-dimethylpyridin-3-yl)acetic acid] | 0.1 to 1 µM | – |
| Cc1nc(C)c([C@H](OC(C)(C)C)C(=O)O)c(N2CCC(C)(C)CC2)c1C1=CCN(C(=O)OC(C)(C)C)CC1 [Example 16, (S)-2-(tert-Butoxy)-2-(1′-(tert-butoxycarbonyl)-4-(4,4-dimethylpiperidin-1-yl)-2,6-dimethyl-1′,2′,3′,6′-tetrahydro-[3,4′-bipyridin]-5-yl)acetic acid] | < 0.1 µM | – |
| Cc1nc(C)c([C@H](OC(C)(C)C)C(=O)O)c(N2CCC(C)(C)CC2)c1C1=CCN(CCc2ccc(F)cc2)CC1 [Example 22, (S)-2-(tert-Butoxy)-2-(4-(4,4-dimethylpiperidin-1-yl)-1′-(4-fluorophenethyl)-2,6-dimethyl-1′,2′,3′,6′-tetrahydro-[3,4′-bipyridin]-5-yl)acetic acid] | 0.1 to 1 µM | – |
| Cc1nc(C)c([C@H](OC(C)(C)C)C(=O)O)c(N2CCC(C)(C)CC2)c1CCc1ccccc1 [Example 12, (S)-2-(tert-Butoxy)-2-(4-(4,4-dimethylpiperidin-1-yl)-2,6-dimethyl-5-phenethylpyridin-3-yl)acetic acid] | 0.1 to 1 µM | – |
| Cc1nc(C)c([C@H](OC(C)(C)C)C(=O)O)c(N2CCC(C)(C)CC2)c1CCc1ccc(-c2ccccc2)cc1 [Example 6, (S)-2-(5-(2-([1,1′-Biphenyl]-4-yl)ethyl)-4-(4,4-dimethylpiperidin-1-yl)-2,6-dimethylpyridin-3-yl)-2-(tert-butoxy)acetic acid] | < 0.1 µM | – |
| Cc1cc(N2CCC(C)(C)CC2)c([C@H](OC(C)(C)C)C(=O)O)c(C)n1 [Example 27, (S)-2-(tert-Butoxy)-2-(4-(4,4-dimethylpiperidin-1-yl)-2,6-dimethylpyridin-3-yl)acetic acid] | > 1 µM | – |
| Cc1nc(C)c([C@H](OC(C)(C)C)C(=O)O)c(N2CCC(C)(C)CC2)c1/C=C/c1ccc(-c2ccccc2)cc1 [Example 5, (S,E)-2-(5-(2-([1,1′-Biphenyl]-4-yl)vinyl)-4-(4,4-dimethylpiperidin-1-yl)-2,6-dimethylpyridin-3-yl)-2-(tert-butoxy)acetic acid] | < 0.1 µM | 0.035 µM |
| Cc1ncc(C2=CCN(CCCc3ccc(F)cc3)CC2)c(N2CCC(C)(C)CC2)c1[C@H](OC(C)(C)C)C(=O)O [Example 32, (S)-2-(tert-Butoxy)-2-(4-(4,4-dimethylpiperidin-1-yl)-1′-(3-(4-fluorophenyl)propyl)-6-methyl-1′,2′,3′,6′-tetrahydro-[3,4′-bipyridin]-5-yl)acetic acid] | < 0.1 µM | 0.002 µM |
| Cc1nc(C)c([C@H](OC(C)(C)C)C(=O)O)c(N2CCC(C)(C)CC2)c1C#CCOCc1ccccc1 [Example 1, (S)-2-(5-(3-(Benzyloxy)prop-1-yn-1-yl)-4-(4,4-dimethylpiperidin-1-yl)-2,6-dimethylpyridin-3-yl)-2-(tert-butoxy)acetic acid] | 0.1 to 1 µM | 0.282 µM |
| Cc1nc(C)c([C@H](OC(C)(C)C)C(=O)O)c(N2CCC(C)(C)CC2)c1CCCc1ccccc1 [Example 10, (S)-2-(tert-Butoxy)-2-(4-(4,4-dimethylpiperidin-1-yl)-2,6-dimethyl-5-(3-phenylpropyl)pyridin-3-yl)acetic acid] | 0.1 to 1 µM | – |
